Experimental data from paper PMC11472310, “Distinctive Immune Signatures Driven by Structural Alterations in Desmuramylpeptide NOD2 Agonists” (Journal of Medicinal Chemistry, 2024).
In brackets after ≈: the same amount, converted by molar mass. Read-outs that look alike come from different tables or passages of the source.

Legend:
[1] = target: T1, hNOD2 (Homo sapiens, UniProt Q9HC29); assay: HEK-Blue NOD2 cell line reporter assay (NF-κB-inducible SEAP); assay type: cell-based
T1 construct: host or cells: HEK-Blue NOD2 cells (HEK293)
Procedure: To assess the NOD2 agonistic potential of the synthesized desmuramylpeptides at a cellular level, we employed the HEK-Blue NOD2 cell line reporter assay, a validated and commercially available method. All synthesized compounds were evaluated for their dose-dependent activities to establish their EC50 values.
The HEK-Blue NOD1 and NOD2 cell line reporter assay was generated from HEK293 cells through cotransfection of the hNOD1 or hNOD2 gene, respectively, along with an NF-κB-inducible secreted embryonic alkaline phosphatase (SEAP) reporter gene. Upon activation of NOD1 or NOD2, NF-κB triggers the production of SEAP, which can be quantitatively measured colorimetrically. […] After 18 h of incubation at 37 °C with 5% CO2, SEAP activity was measured spectrophotometrically by absorbance at 630 nm (BioTek Synergy microplate reader; Winooski, VT, USA). EC50 values were determined using Prism software (version 9; GraphPad Software, CA, USA). Each experiment was conducted in duplicate and repeated in at least two independent biological replicates.

[2] = Kinetic solubility (method of Hoelke et al.); assay type: physicochemical
From the text: Park et al. have shown that the degree of saturation of fatty acids exerts a profound impact on permeability of fatty acylated peptides—a higher degree of unsaturation results in higher permeability.[43] PUFA can also induce significant biophysical perturbations upon incorporation into membrane phospholipids.[67],[68] […] Given that the hydrophobicity of fatty acyl residues in general reduces as the number of unsaturated sites increases,[69],[70] we decided to ascertain how such structural modifications translate to the kinetic solubility of the molecule as a whole. […] The acylation with PUFA thus provides an elegant, albeit counterintuitive, approach, by which permeability of the molecule as a whole as well as its capacity for liposomal encapsulation can be enhanced without completely abolishing its aqueous solubility.

[3] = system: K562 cancer cells; assay: PBMC cytotoxicity against K562 cancer cells (flow cytometry); assay type: cell-based; details: for cytotoxicity of PBMCs against K562 cells, cotreatment with LPS (relative to negative control) / Cytotoxicity (ratio to control), + LPS: 10 μM + LPS 1 μg/mL; for cytotoxicity of PBMCs against K562 cells, cotreatment with LPS (relative to negative control) / enhancement of cytotoxicity of PBMCs against K562 cells (relative to negative control): 18 h, then 4 h coincubation; for cytotoxicity of PBMCs against K562 cells, cotreatment with LPS (relative to negative control): 40:1; for Cytotoxicity (ratio to control), + LPS / Cytotoxicity (ratio to control): Table S2; for Cytotoxicity (ratio to control) / enhancement of cytotoxicity of PBMCs against K562 cells (relative to negative control): alone: compounds 10 μM, LPS 1 μg/mL, IL-2 200 U/mL; for enhancement of cytotoxicity of PBMCs against K562 cells (relative to negative control): effector:target 40:1
Procedure: In this study, we investigated the potential of desmuramylpeptides, both alone and in combination with LPS, to enhance the cytotoxic activity of PBMCs against cancer cells employing a flow-cytometry-based cytotoxicity assay based on coincubation of preactivated PBMCs with fluorescently labeled K562 cancer cells.[82] Among the diverse subpopulations within PBMCs, natural killer (NK) cells play a pivotal role in detecting and eliminating cancer cells. NOD2-mediated NK cell activity against cancer cells arises from both direct NOD2 agonist elicited cytolytic activity of NK cells[83] and indirect activation through cytokine release by other NOD2-responsive cells, such as monocytes, which comprise approximately 10% of PBMCs; such interactions potentially reinforce the immune response.[84] […] To that end, we utilized the entire PBMC population as effector cells rather than isolated NK cells, to mimic conditions more closely resembling the in vivo environment while K562 chronic myelogenous leukemia cells were used as the target cells in a 40:1 effector to target cell ratio.[87]
(§1) The PBMC cytotoxicity assays utilizing K562 cells were conducted following previously established methods, with some adjustments.[82] […] Meanwhile, K562 cells were stained with CFSE (Invitrogen, Carlsbad, CA, USA), washed twice with complete medium, and then added (1 × 10^4 cells per well) to the pretreated PBMCs to achieve a final effector cell to target tumor cell ratio of 40:1. Following a 4-h coincubation period at 37 °C with 5% CO2, cells were stained with Sytox blue dead cell stain (Invitrogen) and analyzed using an Attune NxT flow cytometer (Thermo Fisher Scientific, Waltham, MA, USA) along with FlowJo software (Tree Star, Inc., Ashland, OR, USA). Cells positive for both CFSE and Sytox blue were designated as dead K562 cells. PBMCs alone and CFSE-labeled cancer cells alone were also exposed to the compounds at equivalent concentrations and stained with Sytox blue to assess any direct cytotoxic effects of the compounds on PBMCs and cancer cells separately. Each experiment was conducted in duplicate and repeated in three independent biological replicates. Statistical analysis was performed using one-way ANOVA followed by Dunnett’s multiple comparisons test.

[4] = system: PBMCs; assay: Direct cytotoxic effect of compounds on PBMCs (Sytox blue); assay type: cell-based; details: Table S2; for Percent of dead PBMCs, + LPS: 10 μM + LPS 1 μg/mL; for Percent of dead PBMCs: alone: compounds 10 μM, LPS 1 μg/mL, IL-2 200 U/mL
Procedure: Additionally, PBMCs and cancer cells alone were treated with desmuramylpeptides to assess any direct cytotoxic effects on these cells.
as §1

[5] = system: human PBMCs; assay: Cytokine release from peripheral blood mononuclear cells (LEGENDplex panel); assay type: cell-based; details: 18 h
From the text: The immunomodulatory effects of the selected desmuramylpeptides were examined in human primary peripheral blood mononuclear cells (PBMCs). This diverse mixture of immune cells provided a platform to investigate the effects of these NOD2 agonists within a physiologically relevant environment, encompassing other NOD2-interacting and downstream signaling proteins. […] Given that NOD2 activation often modulates the Toll-like receptor (TLR)-induced cytokine responses, we investigated the impact of combining desmuramylpeptides with lipopolysaccharide (LPS), a well-known TLR4 agonist, on cytokine secretion.[76]−[78]
The elicited cytokine profiles thus broadly reflect the structure–activity relationships obtained in the reporter gene assays.
Peripheral blood mononuclear cells were plated at a density of 1 × 10^6 cells/mL in 48-well plates containing 500 μL of growth medium. Cells were then treated with the compounds (2 μM) or the corresponding vehicle (0.1% DMSO), both in the absence and presence of LPS (10 ng/mL). Following an 18 h incubation period at 37 °C with 5% CO2, cell-free supernatants were collected and stored at −80 °C until analysis. […] Standard curves were constructed using recombinant cytokines provided in the kit. Data analysis was performed using Biolegend software Qognit and Prism (GraphPad, San Diego, CA, USA) software. The experiments were independently replicated four times. Statistical significance was determined using two-way analysis of variance (ANOVA) followed by Tukey’s multiple comparisons test.

[6] = HEK-Blue NOD2 cells, 18 h, NF-κB transcriptional activity (SEAP), read-out: EC50 (nM), NOD2 agonistic activity

T1 sequence (Q9HC29 whole entry): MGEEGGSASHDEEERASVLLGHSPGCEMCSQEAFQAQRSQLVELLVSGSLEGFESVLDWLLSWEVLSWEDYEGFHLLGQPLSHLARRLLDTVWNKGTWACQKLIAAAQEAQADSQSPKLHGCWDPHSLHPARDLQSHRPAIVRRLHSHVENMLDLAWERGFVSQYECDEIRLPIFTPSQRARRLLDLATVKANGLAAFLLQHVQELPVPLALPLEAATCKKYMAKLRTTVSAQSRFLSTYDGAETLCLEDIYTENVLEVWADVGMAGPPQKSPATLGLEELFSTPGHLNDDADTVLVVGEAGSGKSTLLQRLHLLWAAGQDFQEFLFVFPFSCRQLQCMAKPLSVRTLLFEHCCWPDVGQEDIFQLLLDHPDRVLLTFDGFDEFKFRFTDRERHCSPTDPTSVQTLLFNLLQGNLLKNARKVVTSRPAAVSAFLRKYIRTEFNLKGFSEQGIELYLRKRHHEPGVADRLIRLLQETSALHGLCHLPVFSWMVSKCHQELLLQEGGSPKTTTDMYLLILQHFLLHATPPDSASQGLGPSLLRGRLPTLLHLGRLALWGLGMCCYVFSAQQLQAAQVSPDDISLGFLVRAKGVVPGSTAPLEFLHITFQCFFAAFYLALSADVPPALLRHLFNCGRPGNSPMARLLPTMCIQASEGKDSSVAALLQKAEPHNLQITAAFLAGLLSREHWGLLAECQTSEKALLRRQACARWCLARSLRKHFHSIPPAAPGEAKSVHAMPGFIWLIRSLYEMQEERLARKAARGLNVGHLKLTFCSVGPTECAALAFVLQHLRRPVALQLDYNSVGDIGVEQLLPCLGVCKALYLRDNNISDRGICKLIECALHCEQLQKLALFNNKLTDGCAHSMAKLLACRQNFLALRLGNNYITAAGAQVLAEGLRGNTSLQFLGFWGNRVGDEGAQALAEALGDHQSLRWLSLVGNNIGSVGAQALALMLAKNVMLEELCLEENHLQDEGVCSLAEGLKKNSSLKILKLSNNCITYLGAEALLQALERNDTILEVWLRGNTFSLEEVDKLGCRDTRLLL

SMILES	EC50 [1, 6] [nM]	solubility kinetic [2] [µM]	Kinetic solubility [2]	cytotoxicity of PBMCs against K562 cells, cotreatment with LPS (relative to negative control) [3] [fold]	Cytotoxicity (ratio to control), + LPS [3]	Cytotoxicity (ratio to control) [3]	enhancement of cytotoxicity of PBMCs against K562 cells (relative to negative control) [3]	Percent of dead PBMCs, + LPS [4]	Percent of dead PBMCs [4]	levels of LPS-induced IL-10 ([5]; 2 μM + LPS 10 ng/mL)	other results
CCCCCCCCCCCC(=O)Oc1ccc(/C=C/C(=O)NCC(=O)N[C@H](C(=O)N[C@H](CCC(=O)OCC)C(=O)OCC)C(C)C)cc1OC [Compound 2]	9.9 ± 0.69		insoluble	1.54	1.54 ± 0.08	1.00 ± 0.05	no activity	8.07% ± 0.47%	0.96% ± 0.14%	amplified	boost of NOD2 agonist activity on incorporation into SLN/NLC ([1]; 2-loaded SLNs and NLCs versus free 2): 5 factor; EC50 ([1]; HEK-Blue NOD2 cell line, SLN and NLC formulations by melt-emulsification): 10.5 nM; production of MCP-1 and IFN-γ compared to the MDP/LPS combination ([5]; 2 μM + LPS 10 ng/mL): significantly diminished production; secretion of IL-1β, IL-10 and TGFβ compared to the MDP/LPS combination ([5]; 2 μM + LPS 10 ng/mL): increased secretion
CCCCCCCCCCCCCCCC(=O)Oc1ccc(/C=C/C(=O)NCC(=O)N[C@H](C(=O)N[C@H](CCC(=O)OCC)C(=O)OCC)C(C)C)cc1OC [Compound 9, Diethyl ((E)-3-(3-Methoxy-4-(palmitoyloxy)phenyl)acryloyl)glycyl-L-valyl-D-glutamate]	382 ± 121		insoluble								
CCOC(=O)[C@@H](CCC(=O)NCCCNCCCCNCCCN)NC(=O)[C@@H](NC(=O)CNC(=O)/C=C/c1ccc(O)c(OC)c1)C(C)C [Compound 32, N^5-(3-((4-((3-Aminopropyl)amino)butyl)amino)propyl)-N^2-((E)-3-(4-hydroxy-3-methoxyphenyl)acryloyl)glycyl-L-valyl-D-glutaminate]	8640 ± 1920			2.95	2.95 ± 0.41	1.10 ± 0.06	devoid of the capacity to induce cytotoxicity	7.20% ± 0.36%	1.01% ± 0.22%	opposite	EC50 ([1]; HEK-Blue NOD2 cells, 18 h, read-out: EC50, NOD2 agonistic activity (text)): 8600 nM; amounts of IL-1β, IL-6, IL-10, TNF-α and IFN-γ compared to the MDP/LPS combination ([5]; 2 μM + LPS 10 ng/mL): lesser amounts; levels of secreted MCP-1 compared to the MDP/LPS combination ([5]; 2 μM + LPS 10 ng/mL): on par; production of proinflammatory cytokines and chemokines including IL-6, IL-8 and MCP-1 ([5]; 2 μM alone (no LPS)): smaller increases

Second part, led by results:

EC50 [1, 6] [nM]	solubility kinetic [2] [µM]	Kinetic solubility [2]	SMILES	cytotoxicity of PBMCs against K562 cells, cotreatment with LPS (relative to negative control) [3] [fold]	Cytotoxicity (ratio to control), + LPS [3]	Cytotoxicity (ratio to control) [3]	enhancement of cytotoxicity of PBMCs against K562 cells (relative to negative control) [3]	Percent of dead PBMCs, + LPS [4]	Percent of dead PBMCs [4]	levels of LPS-induced IL-10 ([5]; 2 μM + LPS 10 ng/mL)	other results
356 ± 24	209 (≈ 130 µg/mL)		CCOC(=O)[C@@H](CCC(=O)OCCN1CCOCC1)NC(=O)[C@@H](NC(=O)CNC(=O)/C=C/c1ccc(O)c(OC)c1)C(C)C [Compound 35, 1-Ethyl 5-(2-Morpholinoethyl) ((E)-3-(4-hydroxy-3-methoxyphenyl)acryloyl)glycyl-L-valyl-D-glutamate]								drop in activity compared to 1 ([1]; ethyl ester replaced with morpholinoethyl): 4 factor
96.1 ± 51.5	321 (≈ 182 µg/mL)		CCOC(=O)CC[C@@H](NC(=O)[C@@H](NC(=O)CNC(=O)/C=C/c1cc(OC)c(O)c(OC)c1)C(C)C)C(=O)OCC [Compound 37, Diethyl ((E)-3-(4-Hydroxy-3,5-dimethoxyphenyl)acryloyl)glycyl-L-valyl-D-glutamate]								
	417 (≈ 223 µg/mL)		CCOC(=O)CC[C@@H](NC(=O)[C@@H](NC(=O)CNC(=O)/C=C/c1ccc(O)c(OC)c1)C(C)C)C(=O)OCC [Compound 1]								
